From US20050234041A1, “Substituted 1-benzazepines and derivatives thereof” (priority 2001, published 2005)
Values after ≈ are worked out from the molar mass of the structure shown.

Key:
[1] = system: bacteria; test: Antibacterial activity, broth dilution (Table III); assay type: cell-based; settings: graded activity, organism not given
Source text: (§1) Antibacterial activity can be determined by several standard methods well known by those skilled in the art, including disc diffusions methods, broth dilution minimal inhibitory concentration (MIC) methods, etc., including the detailed method outlined below and as defined by the National Committee of Clinical Laboratory Standards in the United States.
(§2) MIC, Broth Dilution Method
(§3) Cultures of bacteria are initially brought up from the freezer stocks onto chocolate agar plates by streaking a loop-full, then incubated for 18 hours at 35-37° C. in a 5% CO2 incubator.
(§4) Five to 10 colonies are picked from the chocolate agar plate for subculture to Brain-Heart Infusion (BHI) broth or Mueller Hinton broth or BHI containing 4% serum and incubated as described.
(§5) Evaluate the optical density of the organisms in the wells of a 96 well microtiter plate with and without the test compound. The optical density of the organisms in the presence of an active compound will be less than the optical density of the same organism untreated. The activity of the compounds is described as either negative or the lowest concentration inhibiting growth. The results are depicted in Table III, where +/− represents the least activity and ++++ represents the greatest activity. In Table IV, the results are depicted where MIC represents the lowest concentration of antibiotic that inhibits bacterial growth.

[2] = system: Campylobacter jejuni; test: MIC, broth dilution method, Campylobacter jejuni; assay type: cell-based; settings: Campylobacter jejuni; Table IV; MIC, lowest concentration that inhibits bacterial growth; read-out: Antibacterial Activity (micrograms/ml) Campylobacter jejuni
Source text: as §1, §2, §3, §4, §5

[3] = system: Helicobacter pylori; test: MIC, broth dilution method, Helicobacter pylori; assay type: cell-based; settings: Helicobacter pylori; Table IV; MIC, lowest concentration that inhibits bacterial growth; read-out: Antibacterial Activity (micrograms/ml) Helicobacter pylori
Source text: as §1, §2, §3, §4, §5

For `CCN1C(=O)C(C(=O)O)CCc2cc(N3CCNCC3)c(OC)cc21.Cl` (racemic) [Example 15, 3(R, S)-Carboxyl-1-ethyl-8-methoxy-7-(piperazin-1-yl)-2,3,4,5-tetrahydro-1H-1-benzazepine-2-one hydrochloride], the “Antibacterial Activity” value [1] was “−”, the MIC [2] was over 200 mg/L and the MIC [3] was over 200 mg/L. The melting point was 173 to 176 °C (dec.).
With `CCN1C(=O)C(C(=O)O)CCc2cc(Br)c(OC)cc21` (racemic) [Example 17, 7-Bromo-3(R,S)-carboxyl-1-ethyl-8-methoxy-2,3,4,5tetrahydro-1H-1-benzazepine-2-one] the “Antibacterial Activity” value [1] was “+/−”, the MIC [2] was over 200 mg/L and the MIC [3] was 200 mg/L (≈ 584 µM). For the same compound, the melting point was 188 to 189 °C (dec.).
For `CCN1C(=O)C(C(=O)OC(C)(C)C)C=Cc2ccc(OC)cc21` (racemic) [Example 16, 3(R,S)-tert-Butoxycarbonyl-1-ethyl-8-methoxy-2,3-dihydro-1H-1-benzazepine-2-one], the “Antibacterial Activity” value [1] was “++++”, the MIC [2] was over 200 mg/L and the MIC [3] was over 6.25 mg/L. It also gave a melting point of 173 to 174 °C.
For `O=C1CCCc2ccc(O)cc2N1` [Example 33, 8-Hydroxy-2,3,4,5-tetrahydro-1H-1-benzazepine-2-one], the “Antibacterial Activity” value [1] was “++++”, the MIC [2] was over 200 mg/L and the MIC [3] was 0.78 mg/L (≈ 4.4 µM). For the same compound, the melting point was 226 to 227 °C.
